PMC9780942, “Antimicrobial Activity and Immunomodulatory Properties of Acidocin A, the Pediocin-like Bacteriocin with the Non-Canonical Structure” (Membranes, 2022)
Positions of bridges follow the written chain, without caps; N, C: chain ends. No end group written: not given here.

Key:
L. monocytogenes EGD = format: cell-based, Listeria monocytogenes; conditions: 24 h
Method: (§1) Antibacterial activity of recombinant bacteriocins against a number of Gram-positive and Gram-negative bacteria (Table S2) was determined by the method of two-fold serial dilutions in a liquid medium. Two-fold serial dilutions of bacteriocins were prepared in sterile 96-well flat-bottom polystyrene microplates (Eppendorf, Hamburg, Germany) (Cat. No. 0030730.011) in a volume of 50 µL of sterile 0.1% bovine serum albumin (BSA) (SERVA Electrophoresis GmbH, Heidelberg, Germany) to prevent non-specific sorption of peptides to the surface of the plate wells [23]. Mid-log phase bacterial cultures were diluted with the 2x Mueller-Hinton broth (MHB) (Sigma-Aldrich, St. Louis, MO, USA) to a final cell concentration of 10^6 colony forming units (CFU) per mL. To determine the activity of bacteriocins against Listeria and Enterococci, 3% tryptic soy broth (TSB) (Merck-Millipore, Burlington, MA, USA) was used instead of MHB. Aliquots of 50 μL of diluted bacterial suspensions were added to each well of the plate, which was then incubated at 37 °C and 950 rpm for 24 h using thermostatable plate shaker PST-60HL-4 (Biosan, Riga, Latvia). As a negative control, 50 µL of the sterile growth medium (2xMHB or 6% TSB) was added to the wells containing 50 µL of 0.1% BSA. The values of the minimum inhibitory concentrations (MIC) were determined as the minimum concentration of the peptide, at which there was no visible growth of bacterial culture. Incubation for 2 h with 20 µg/mL chromogenic substrate resazurin (Sigma-Aldrich, St. Louis, MO, USA) was used to detect viable bacterial cells if they were difficult to visually detect. To study the effect of inorganic salts on the antimicrobial activity of bacteriocins, antibacterial activity assay was carried out in MHB medium supplemented with 0.9% NaCl.

L. lactis MK43 = test: Antibacterial activity assay (MIC), two-fold serial dilutions in liquid medium; format: cell-based; conditions: for Minimum inhibitory concentration in the presence of NaCl: MHB supplemented with 0.9% NaCl; for Minimum Inhibitory Concentration: MHB, 0.1% BSA, 37 °C, 24 h, no visible growth
Method: as §1

tested bacterial strains = test: Antibacterial activity assay (MIC), average change over the tested strains; format: cell-based
Method: as §1, with “As a negative control, 50 µL of the sterile growth medium (2xMHB or 6% TSB) was added to the wells containing 50 µL of 0.1% BSA.” left out, “Incubation for 2 h with 20 µg/mL chromogenic substrate resazurin (Sigma-Aldrich, St. Louis, MO, USA) was used to detect viable bacterial cells if they were difficult to visually detect. To study the effect of inorganic salts on the antimicrobial activity of bacteriocins, antibacterial activity assay was carried out in MHB medium supplemented with 0.9% NaCl.” left out

S. aureus 209P = format: cell-based; conditions: 24 h
Method: as §1

[1] = system: P. aeruginosa MDR CI 1995; format: cell-based; conditions: MDR CI 1995, 24 h
Method: as §1

A. baumannii XDR CI 2675 = format: cell-based; conditions: XDR CI 2675, 24 h
Method: as §1

E. coli ATCC 25922 = format: cell-based; conditions: ATCC 25922, 24 h
Method: as §1

E. coli XDR CI 1057 = format: cell-based; conditions: XDR CI 1057, 24 h
Method: as §1

M. phlei Ac-1221 = format: cell-based; conditions: 24 h
Method: as §1

B. subtilis B-886 = format: cell-based; conditions: B-886, 24 h
Method: as §1

E. coli SQ110 = format: cell-based; conditions: SQ110, 24 h
Method: as §1

E. coli ML-35p = format: cell-based; conditions: 24 h
Method: as §1

M. luteus Ac-2229 = format: cell-based; conditions: Ac-2229, 24 h
Method: as §1

L. lactis MK66 = format: cell-based; conditions: MK66, 24 h
Method: as §1

B. licheniformis B-511 = format: cell-based; conditions: 24 h
Method: as §1

Row | Sequence | Minimum Inhibitory Concentration (L. monocytogenes EGD) | Minimum inhibitory concentration in the presence of NaCl (L. lactis MK43) | Minimum Inhibitory Concentration (L. lactis MK43) | Minimum Inhibitory Concentration (S. aureus 209P) | Minimum Inhibitory Concentration [1] | Minimum Inhibitory Concentration (A. baumannii XDR CI 2675) | Minimum Inhibitory Concentration (E. coli ATCC 25922) | Minimum Inhibitory Concentration (E. coli XDR CI 1057) | Minimum Inhibitory Concentration (M. phlei Ac-1221) | Minimum Inhibitory Concentration (B. subtilis B-886) | Minimum inhibitory concentration in the presence of NaCl (B. subtilis B-886) | Minimum Inhibitory Concentration (E. coli SQ110) | Minimum inhibitory concentration in the presence of NaCl (E. coli SQ110) | Minimum Inhibitory Concentration (E. coli ML-35p) | Minimum inhibitory concentration in the presence of NaCl (E. coli ML-35p) | Minimum Inhibitory Concentration (M. luteus Ac-2229) | Minimum Inhibitory Concentration (L. lactis MK66) | Minimum inhibitory concentration in the presence of NaCl (L. lactis MK66) | Minimum Inhibitory Concentration (B. licheniformis B-511) | Minimum inhibitory concentration in the presence of NaCl (B. licheniformis B-511) | other results
1 | KTYYGNGVHCTKKSLWGKVRLKNVIPGTLSRKQSLPIKQDLKILLGWATGAFGKTFH [AcdA(dT,C31S)] | >32 µM | > 32 µM | 2 µM | 32 µM | >32 µM | 16 µM | 8 µM | 16 µM | 4 µM | 4 µM | > 32 µM | 8 µM | 16 µM | 8 µM | 32 µM | 16 µM | 1 µM | > 32 µM | 4 µM | > 32 µM | Increase of MIC values on average compared to AcdA(dT) and acidocin A (tested bacterial strains): 2–4 fold
2 | KTYYGNGVHCTKKSLWGKVRLKNVIPGTLCRKQSLPIKQDLKILLGWATGAFGKTFH (cysteines drawn unpaired) [AcdA(dT) (DTT reduced)] | >32 µM | – | 2 µM | 16 µM | >32 µM | 8 µM | 8 µM | 16 µM | 4 µM | 4 µM | – | 4 µM | – | 4 µM | – | 16 µM | 1 µM | – | 4 µM | – | –
3 | KTYYGTNAVHCTKKSLWGKVRLKNVIPGTLCRKQSLPIKQDLKILLGWATGAFGKTFH (disulfide 11-31) [AcdA(G8A)] | >32 µM | > 32 µM | 4 µM | 8 µM | 16 µM | 8 µM | 16 µM | 8 µM | 2 µM | 8 µM | > 32 µM | 4 µM | 32 µM | 8 µM | 16 µM | 16 µM | 2 µM | > 32 µM | 8 µM | > 32 µM | –
